Laboratory results reported in ChEMBL document CHEMBL1134339, “New 1-aryl-3-(4-arylpiperazin-1-yl)propane derivatives, with dual action at 5-HT1A serotonin receptors and serotonin transporter, as a new class of antidepressants” (J Med Chem, 2001).

Assays:
[1] = target: T1, 5-hydroxytryptamine receptor 3A (Rattus norvegicus, UniProt P35563); test: Affinity at 5-hydroxytryptamine 3 receptor (For granisetron = Ki (nM)=0.3+/-0.01)
T1 sequence (P35563 whole entry): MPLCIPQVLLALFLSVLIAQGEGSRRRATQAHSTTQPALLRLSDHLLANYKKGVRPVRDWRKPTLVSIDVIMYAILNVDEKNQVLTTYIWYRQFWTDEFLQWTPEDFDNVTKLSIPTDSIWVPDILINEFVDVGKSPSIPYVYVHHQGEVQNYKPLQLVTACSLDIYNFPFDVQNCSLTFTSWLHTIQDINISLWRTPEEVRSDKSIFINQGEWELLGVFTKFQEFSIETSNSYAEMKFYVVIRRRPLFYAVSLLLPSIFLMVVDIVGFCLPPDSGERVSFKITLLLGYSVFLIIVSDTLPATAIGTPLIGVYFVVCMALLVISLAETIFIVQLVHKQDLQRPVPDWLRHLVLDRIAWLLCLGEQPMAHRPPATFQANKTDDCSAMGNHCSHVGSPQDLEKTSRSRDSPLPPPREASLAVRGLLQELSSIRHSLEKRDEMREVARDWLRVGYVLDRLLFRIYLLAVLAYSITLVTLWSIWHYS

[2] = test system: Mus musculus; test: Antidepressant-like activity in the forced swimming test (FST) in mice at 10 mg/kg dose; type: functional
[3] = target: Adrenergic receptor beta (Rattus norvegicus, UniProt P18090+P10608+P26255); test: Affinity at beta-adrenoceptor (For DHA Ki(nM)= 3.5+/-0.3); type: protein assay
[4] = target: T2, 5-hydroxytryptamine receptor 1A (Homo sapiens) (UniProt P08908); test: Percent increase in the Forskolin-Stimulated cAMP formation, in HeLa cells transfected with the 5-HT 1A receptor at 1 uM concentration; type: functional, cell-based
T2 sequence (whole entry): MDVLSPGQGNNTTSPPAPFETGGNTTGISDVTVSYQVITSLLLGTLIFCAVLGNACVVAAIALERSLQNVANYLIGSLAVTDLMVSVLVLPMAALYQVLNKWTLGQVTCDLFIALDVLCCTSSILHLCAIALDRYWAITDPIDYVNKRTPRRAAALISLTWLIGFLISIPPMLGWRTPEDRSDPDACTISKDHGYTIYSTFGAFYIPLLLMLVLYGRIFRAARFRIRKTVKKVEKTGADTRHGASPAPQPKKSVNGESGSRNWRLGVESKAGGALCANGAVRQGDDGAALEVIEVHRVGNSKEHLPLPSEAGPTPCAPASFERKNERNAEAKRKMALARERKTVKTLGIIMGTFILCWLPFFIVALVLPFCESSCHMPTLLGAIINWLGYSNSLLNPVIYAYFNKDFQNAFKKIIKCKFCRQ

[5] = test system: Mus musculus; test: Effect on immobility time in the forced swimming test (FST) in mice at 0.01 mg/kg dose; type: functional
[6] = test system: Mus musculus; test: Antidepressant-like activity in the forced swimming test (FST) in mice at 0.01 mg/kg dose; Antidepressant like activity; type: functional
[7] = test system: Mus musculus; test: Time-dependent effect on 8-OH-DPAT-induced hypothermia (change in body temperature) after 15 min, in mice at 0.01 mg/kg dose; type: functional

| Ki [1] | Ki [3] | SMILES | Activity [2] | cAMP increase [4] | Immobility time [5] | Activity [6] | Temperature change [7] |
| --- | --- | --- | --- | --- | --- | --- | --- |
| > 5 µM | > 5 µM | COc1ccccc1N1CCN(CCC(=O)c2csc3ccccc23)CC1 | 54% | – | – | – | – |
| – | – | COc1ccccc1N1CCN(CCC(O)c2csc3ccccc23)CC1 (configuration not stated) | – | 64% | <54.4 s | 70% | -1.26 °C |
